“Also recorded” adds a separate entry of the source. Starred links: 1 amine or outer side, 2 acyl side, 3 side chain; linkers in the order of their positions; H or OH if unused. Positions of bridges follow the written chain, without caps; N, C: chain ends. Residues, ends and D or L forms follow the SMILES beside them. Chains are numbered I, II in the order given. No end group written: not given here. X1 = O=C(CCN[*:2])[*:1]; βAla = NCCC(=O)O
Tests used:
NMDA receptor = experiment: Whole cell patch recording of isolated NMDA EPSC, CA1 pyramidal neuron in hippocampal slices; settings: perfusion in presence of NBQX 5 μM and picrotoxin 50 μM, clamped at +40 mV, CN2097 2 μM, APV 50 μM
Description: APV is a selective NMDA receptor antagonist.
(§1) CN 2097 is effective in synaptic plasticity and is able to lower the threshold for LTP induction, as shown FIG. 2. […] Without being bound by any particular theory, it is believed that CN 2097 acts through its ability to specifically interfere with NR2B activity and expression to change the sliding threshold for synaptic plasticity, altering the ratio of NR2A:NR2B. Similarly, antagonism of NR2B has been reported to lower the threshold for synaptic plasticity, such that LTP can be induced in response to a normally impotent stimulation with NMDA agonist. […] The cell voltage was clamped at +40 mV and synaptic responses were recorded.

NR2B NMDAR subunit = experiment: Electrophysiological and biochemical preliminary studies
Description: (§2) Using Fmoc-based protocols, a series of peptide ligands were synthesized that complement the PDZ-binding domain of PSD-95 with the criteria of being membrane permeable, resistant to protease activity and biologically active. The peptide KNYKKTEV, which codes for the CRIPT PDZ-3 binding motif, was cyclized between the valine (V) and threonine (T) residues via beta-alanine linkage and either myristylated (CN2180) or linked to a poly-arginine tail (CN2097; FIG. 1) to enhance its diffusion and uptake capacity by neurons in intact tissues. Binding specificity of CN2180 was tested against a PDZ-domain array consisting of 96 distinct His-tagged PDZ domains purified and spotted on a gridded nylon membrane. […] CN 2097 acts as competitive ligand for this binding site and as such is able to disrupt the normal binding of NR2B receptors to the PSD. Also, it is believed that CN2097 disrupts NR2B downstream signaling by displacing signaling effectors attached directly or indirectly to the NR2B/PSD-95 signaling complex including CaMKII. […] Without being bound by any particular theory, this effect is believed due to the disruption of apoptotic and necrotic cell signaling pathways that propagate the cell death signal.

[1] = tested on: AS mouse (Ube3am−/p+) hippocampal slices; experiment: LTP in AS mouse (Ube3am-/p+) hippocampal slice, three trains of HFS; settings: CN2097 2 μM superfused 20-50 minutes, three trains of HFS 10 seconds apart at 40 minutes
Experimental: Then CN2097 2 μM was superfused from 20-50 minutes. The arrow at 40 minutes indicates three trains of High Frequency Stimuli 10 seconds apart. The HFS is 100 pulses in 1 second with an interpulse interval of 10 ms, i.e. 100 Hz. […] In AS mice this stimulation is normally unable to induce LTP (FIG. 8.). At 90-100 minutes the averaged response was 159.8+/−1.1%, n=7.
(§3) Ube3a deficient (“AS”) mice were developed previously (Jiang, Y. H. et al. Mutation of the Angelman ubiquitin ligase in mice causes increased cytoplasmic p53 and deficits of contextual learning and long-term potentiation. Neuron 21, 799-811 (1998)), were obtained through the Jackson Laboratory. Mice were bred on a 129S7 background. To obtain heterozygous mice lacking the Ube3a gene maternally (m−/p+), we crossed a heterozygous female mouse (m−/p+) with a wild-type male mouse (m+/p+). Wild type (WT) littermates (m+/p+) were used as controls.

PI3K and AKT signaling = experiment: ACPD (mGluR1 agonist) signaling with CN2097 added; type: cell-based; settings: CN2097 added to ACPD
Experimental: ACPD, an agonist of mGluR1, when CN2097 is added leads to an enhancement of PI3K and AKT signaling.

retinal ganglion cells = experiment: NMDA-induced ganglion cell death in the rat retina, intravitreal injection; type: in vivo
Experimental: Rat eyes were given an intravitreal injection containing 20 nmol of NMDA with 3 nmol CN2097 being co-administered or injected following NMDA insult at 1, 2 or 6 hrs. Retinal ganglion cell survival was assessed by counting fluorogold-labeled cells In an defined area (between 2 and 3 mm) from the center of the optic nerve head of each retina and compared with untreated (control) retinas.
Tests included 20 nmol NMDA vs 1.2 nmol CN2097/20 nmol NMDA.

retina and hippocampus = experiment: Excitotoxic studies with lethal doses of NMDA
Description: as §2

Human plasma half-life = type: in vitro ADME
[2] = Uptake into the brain post i.v.; type: in vivo; settings: hippocampus, cerebellum, periventricular nucleus of the hypothalmus, deep cerebellar nuclei, sub-cortex, retina
Description: In addition uptake into the deep cerebellar nuclei, in the sub-cortex and the retina are noted.

[3] = tested on: WT mouse hippocampal slice; experiment: LTP in WT mouse hippocampal slice, one sub-threshold HFS (fEPSP slope)
Experimental: FIG. 6 presents data from a WT mouse adult hippocampal slice. An arrow indicates the time point at which one sub-threshold High Frequency Stimuli (HFS, 100 pulse in 1 second every 10 ms, 100 Hz) was applied. The white box indicates the treatment with CN2097 2 μM.
as §3

[4] = tested on: Schaffer Collateral-CA1 synapse; experiment: Sub-threshold LTP induction at Schaffer Collateral-CA1 synapse (fEPSP); design: species or system adult Wistar rat; settings: for LTP induction with sub-threshold protocol: CN2097 2 μM, low intensity 1 second 100 Hz HFS that normally fails to induce LTP
Description: It would normally induce no increase in baseline fEPSP responses (lower line).
as §1

[5] = tested on: mTOR, S6 and AKT expression pathways; experiment: Western blots of in vivo injected retinas, SH-SY5Y neuroblastomas and primary cerebellar granule neurons; type: cell-based
Description: Additionally, upregulation of CaMKII, an NMDAR-PSD-95 associated protein, is believed to be associated with synaptic plasticity. Biochemical analyses using western blots of in vivo injected retinas, cultured SH-SY5Y neuroblastomas and primary cultured mouse cerebellar granule neurons (CGN) was undertaken. Left and right eyes were given in vivo injections of phosphate buffered saline (PBS), NMDA, NMDA with CN 2097 and NMDA with CN5135, the retinas were then removed and lysed. CGNs were stimulated by a paradigm designed to mimic synaptic stimulation ([…] in ACSF) and SH-SY5Y cells were activated by nerve growth factor (NGF 50 ng/ml). […] Additionally CN2097 increased the expression CREB, which is also neuroprotective. Also observed were increases in levels of PSD-95.
CN2097 (2 μM) was tested after injection into eyes/retinas (lower left panel) applied to cell cultures for 5-30 minutes concurrently with either a synaptic stimulation and nerve growth factor (NGF) 50 ng/ml. CN2097 saw increased ERK, AKT1/2, p-S6K, p-S6, p-ERK, p-p38, p-CREB and PSD-95. Additionally, CN2097 (2 μM) inhibited p-JNK. CN2097S (szeto sequence used instead of Pol-Arginine) and CN5135 (2, 10 and […]), a structural analogue of CN2097 with disruptive alanine substitutions at the 0 and −2 ring positions (binding domain) were used a negative controls whilst tat-NR2B9c (TAT, 2 μM) was used as a positive control.

[6] = tested on: PDZ domains of other MAGUKS, MUPP1, S-SCAM, Shank and spinophilin; experiment: PDZ-domain array of 96 His-tagged PDZ domains; type: binding
Description: as §2

[7] = biological target: T1, PDZ1-PDZ2 domains of PSD-95 (Homo sapiens, UniProt P78352); experiment: PDZ-domain array of 96 His-tagged PDZ domains; type: binding
T1 construct: His
Description: as §2

PDZ3 domain of PSD-95 = biological target: T2, PDZ3 domain of PSD-95 (Homo sapiens, UniProt P78352); experiment: PDZ-domain array of 96 His-tagged PDZ domains; type: binding
T2 construct: His
Description: as §2

T1 sequence (P78352 65-246 limits assumed): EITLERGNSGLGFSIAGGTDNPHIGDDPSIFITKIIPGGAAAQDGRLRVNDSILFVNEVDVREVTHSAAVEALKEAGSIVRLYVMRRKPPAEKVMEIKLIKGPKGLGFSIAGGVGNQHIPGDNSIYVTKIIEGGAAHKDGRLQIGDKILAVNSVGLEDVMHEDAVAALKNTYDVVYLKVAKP
T2 sequence (P78352 313-393 limits assumed): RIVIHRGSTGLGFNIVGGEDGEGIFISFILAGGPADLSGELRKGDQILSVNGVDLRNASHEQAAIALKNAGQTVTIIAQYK

N[C@@H](CCCP(=O)(O)O)C(=O)O [APV, reference compound]
effect on pharmacologically isolated NMDA EPSC (NMDA receptor): abolished the EPSC

CC(C)[C@H](NC(=O)[C@@H]1CCC(=O)NCCC(=O)NCCCC[C@H](NC(=O)[C@H](CCCCN)NC(=O)[C@H](Cc2ccc(O)cc2)NC(=O)[C@H](CC(N)=O)NC(=O)[C@H](CCCCN)NC(=O)[C@@H](N)CSSC[C@H](N)C(=O)N[C@@H](CCCNC(=N)N)C(=O)N[C@@H](CCCNC(=N)N)C(=O)N[C@@H](CCCNC(=N)N)C(=O)N[C@@H](CCCNC(=N)N)C(=O)N[C@@H](CCCNC(=N)N)C(=O)N[C@@H](CCCNC(=N)N)C(=O)N[C@@H](CCCNC(=N)N)C(N)=O)C(=O)N[C@@H]([C@@H](C)O)C(=O)N1)C(=O)O [CN2097] (I: H-CKNYKKTEV-OH / II: H-CRRRRRRR-NH2; disulfide I:1-II:1; linker I:6-I:8 via X1)
specificity toward the NR2B NMDAR subunit (NR2B NMDAR subunit): demonstrates specificity
LTP, averaged response at 90-100 minutes [1]: 159.8+/−1.1%
PI3K and AKT signaling with ACPD (PI3K and AKT signaling): enhancement
NMDA-induced TUNEL-labeling in the retina (retinal ganglion cells; 20 nmol NMDA vs 1.2 nmol CN2097/20 nmol NMDA): blocked
ganglion cell death with post-treatment (retinal ganglion cells; 20 nmol NMDA, 3 nmol CN2097 co-administered or injected 1, 2 or 6 hrs after NMDA): neuroprotective effects
NMDA-induced poly(ADP-ribosyl)ation-immunoreactivity (PAR-IR) (retinal ganglion cells; matched paired retinas, 20 nmol NMDA): dose dependent attenuation
NMDA-induced ganglion cell loss, fluorogold retrograde labeling (retinal ganglion cells; viewed 14 days post insult): provided protection
NMDA-induced loss of plasma membrane selectivity (LPMS; necrosis) (retinal ganglion cells; vs time matched NMDA-treated retina): blocked
neuroprotection against lethal doses of NMDA (retina and hippocampus): neuroprotective
half-life (Human plasma half-life): ~48 min
uptake into the brain [2]: uptake into the brain has also been noted
LTP, % of baseline fEPSP slope ([3]; 2 μM treatment combined with one sub-threshold HFS (HFS1, 100 Hz)): 187.2+/−1.034%
effect of compound alone upon baseline responses ([3]; CN2097 2 μM, between 20 and 40 minutes, before HFS): no significant observed effect
duration of induced LTP ([4]; 2 μM CN 2097, 1 second 100 Hz HFS): over 60 minutes
LTP induction with sub-threshold protocol [4]: results in LTP induction
LTP induction with sub-threshold protocol ([4]; listed as CN 2097): induced a significant LTP
expression of CREB [5]: increased
levels of PSD-95 [5]: increases
p-JNK ([5]; 2 μM): inhibiting; also recorded: inhibited
total protein expression and phosphorylation state of pro-survival signaling proteins (CamKII, ERK, AKT1/2, p-S6K, p-S6, p-ERK, p-p38, p-CREB, PSD-95) ([5]; 2 μM, 5-30 minutes, with synaptic stimulation or NGF 50 ng/ml, or injected retinas): increases in both total protein expression and phosphorylation state; also recorded: increased
effect on pharmacologically isolated NMDA EPSC (NMDA receptor): lack of effect
effect on pharmacologically isolated NMDA EPSC (NMDA receptor; listed as CN 2097): does not act as an antagonist

CN2180: peptide KNYKKTEV cyclized between valine and threonine via beta-alanine linkage, myristylated (bridge (positions not given here) via βAla; also: cyclized between valine and threonine via beta-alanine linkage, myristylated, site not given here)
binding to PDZ domains of other MAGUKS and other PDZ-containing proteins [6]: did not bind
binding specificity to PDZ1-PDZ2 domains of PSD-95 [7]: high specificity
binding to PDZ3 domain of PSD-95 (PDZ3 domain of PSD-95): moderate binding
